Several values for one entry are separate records, joined by “and”; a condition that tells them apart may be missing. Equal entries are not always repeated.
Assays:
[1] = test system: urethane-anesthetized female rats; assay: Leak point pressure by direct compressing of the bladder (Example 4); type: in vivo, rat; settings: for leak point pressure after drug administration / leak point pressure increase / leak point pressure before drug administration: i.v., mean ± SEM; for leak point pressure after drug administration: 20 min later; for leak point pressure before drug administration: baseline; for effect on leak point pressure: intravenous administration
Description: SD female rats (body weight 180-350 g) were anesthetized with urethane (Wako Pure Chemical Industries, Ltd.), and halothane (Takeda Pharmaceutical Company Limited) anesthesia was added when necessary during operation.
The spinal cord was transected at T8-9 level to eliminate the reflex voiding. The lower abdomen was incised in the median line, a catheter for intravesical pressure measurement (PE-90, Clay Adams) was inserted into the bladder and secured with a ligature, and the intravesical pressure was measured via a pressure transducer. Urine was emptized in advance by bilaterally pressing the bladder with two swabs, and a 0.1% Evans blue (Merck) solution (0.4 mL) was injected into the bladder. The bladder was gradually compressed bilaterally with two swabs, and the intravesical pressure upon saline leakage from the urethral orifice was measured and defined as a leak point pressure. The measurement of the leak point pressure was repeated, and the average value of the final five stable measures was taken as the value before drug administration. Thereafter, the drug was intravenously administered, the leak point pressure was measured again 20 min later, and the value after the drug administration was determined. DOI, mCPP and eltoprazine were dissolved in saline, and other drugs were dissolved in DMA/PEG400 (1:1), and intravenously administered at 1 ml/kg and 0.5 mg/kg, respectively. Depending on the experiment, RS-102221 or SB221284 (showing serotonin 5-HT2C receptor antagonist activity) was administered, 5 min later, WAY-161503 or WAY-163909 was administered, leak point pressure was measured 10 min later, and a competitive assay with the action of WAY-161503 or WAY-163909 was performed. RS-102221 and SB221284 were both dissolved in DMA/PEG400 (1:1), and intravenously administered at 0.5 ml/kg.

[2] = test system: urethane-anesthetized female rats; assay: Leak point pressure by abdominal wall-electrically stimulating method, serotonin 5-HT receptor agonists (Example 3); type: in vivo, rat; settings: for leak point pressure after drug administration / leak point pressure increase / leak point pressure before drug administration: i.v., mean ± SEM; for leak point pressure before drug administration: baseline; for effect on leak point pressure: intravenous administration
Description: SD female rats (body weight 180-350 g) were anesthetized with urethane (Wako Pure Chemical Industries, Ltd.), and the spinal cord was transected at T8-9 level to eliminate the reflex voiding. In addition, the nerve to the iliococcygeus muscle/pubococcygeus muscle on the one side was transected. During operation, halothane (Takeda Pharmaceutical Company Limited) anesthesia was added when necessary. A catheter (PE-90, Clay Adams) was inserted into the bladder and secured with a ligature, and the incised part of each of the abdominal muscle and skin was closed with sutures. The abdominal skin near the diaphragm was incised at two left and right positions to newly expose the abdominal muscle. An Evans Blue dye (Merck) solution was injected into the bladder, and the bladder volume was adjusted to 0.2-0.3 ml. The bladder catheter was connected to a pressure transducer, and the signals of the transducer were sent to a computer via an amplifier (blood pressure amplification unit AP-641G; NIHON KOHDEN) and an analog-to-digital converter (BIOPAC; MP100), and recorded on a hard disc. The data were analyzed on a computer using software (BIOPAC; AcqKnowledge). The exposed abdominal muscle was electrostimulated using an electrostimulator (SEN-3301; NIHON KODEN) and an isolator (SS-202J; NIHON KODEN), and the presence or absence of incontinence from the meatus urethra was observed. The electrostimulation was applied at a voltage of 2.5-50 V, duration of 0.5 milisec, and frequency 50 Hz for 1 sec, thereby gradually increasing the intravesical pressure. The peak intravesical pressure during stimulation of the abdominal wall was measured and, of the trials with observed incontinence, the lowest peak intravesical pressure was defined as the leak point pressure. Serotonin 5-HT receptor agonist, WAY-161503 (5-HT2C receptor agonist), WAY-163909 (5-HT2C receptor agonist), DOI (5-HT2A/2B/2C receptor agonist), mCPP (5-HT2B/2C receptor partial agonist), eltoprazine (5-HT1A/1B/2C receptor partial agonist), 8-OH-DPAT (5-HT1A receptor agonist), sumatryptan (5-HT1B/1D receptor agonist) and BW723C86 (5-HT2B receptor agonist) were intravenously administered, and the leak point pressure was compared before and after the administration. DOI, mCPP and eltoprazine were dissolved in saline, and other drugs were dissolved in DMA/PEG400 (1:1), and they were intravenously administered at 1 ml/kg and 0.5 mg/kg, respectively. Depending on the experiment, RS-102221 (serotonin 5-HT2C receptor antagonist) or SB221284 (serotonin 5-HT2B/2C receptor antagonist) was intravenously administered 5 min before WAY-161503 or WAY-163909 administration, and an antagonistic effect against the WAY-161503 or WAY-163909-induced increment of the leak point pressure was examined. RS-102221 and SB221284 were both dissolved in DMA/PEG400 (1:1) and intravenously administered at 0.5 ml/kg.

Compound | leak point pressure after drug administration ([1]; 0.01 mg/kg) [cmH2O] | leak point pressure increase ([1]; 0.01 mg/kg) [cmH2O] | leak point pressure after drug administration ([1]; 0.03 mg/kg) [cmH2O] | leak point pressure increase ([1]; 0.03 mg/kg) [cmH2O] | leak point pressure after drug administration ([1]; 0.1 mg/kg) [cmH2O] | leak point pressure increase ([1]; 0.1 mg/kg) [cmH2O] | leak point pressure after drug administration ([1]; 0.3 mg/kg) [cmH2O] | leak point pressure increase ([1]; 0.3 mg/kg) [cmH2O] | leak point pressure before drug administration ([1]; dose group 0.01 mg/kg) [cmH2O] | leak point pressure before drug administration ([1]; dose group 0.03 mg/kg) [cmH2O] | leak point pressure before drug administration ([1]; dose group 0.1 mg/kg) [cmH2O] | leak point pressure before drug administration ([1]; dose group 0.3 mg/kg) [cmH2O] | effect on leak point pressure [1] | leak point pressure after drug administration ([2]; 0.01 mg/kg) [cmH2O] | leak point pressure increase ([2]; 0.01 mg/kg) [cmH2O] | leak point pressure after drug administration ([2]; 0.03 mg/kg) [cmH2O] | effect on leak point pressure [2] | leak point pressure after drug administration ([2]; 3 mg/kg) [cmH2O] | leak point pressure increase ([2]; 3 mg/kg) [cmH2O] | leak point pressure before drug administration ([2]; dose group 3 mg/kg) [cmH2O] | further results
COc1cc(CC(C)N)c(OC)cc1I (centres unmarked) [DOI] | 68.5 ± 5.7 | 2.9 ± 2.0 | 71.1 ± 6.7 | 6.2 ± 2.9 | 79.5 ± 2.6 | 14.3 ± 2.8 | 85.7 ± 6.0 | 18.7 ± 2.9 | 65.7 ± 6.3 | 64.9 ± 5.4 | 65.2 ± 3.6 | 67.0 ± 4.3 | increased the leak point pressure significantly | 39.7 ± 5.2 | 3.2 ± 3.3 | 50.1 ± 7.1 | increased the leak point pressure significantly |  |  |  | leak point pressure after drug administration ([1]; 1 mg/kg): 82.9 ± 3.6 cmH2O; leak point pressure increase ([1]; 1 mg/kg): 22.6 ± 2.5 cmH2O; leak point pressure before drug administration ([1]; dose group 1 mg/kg): 60.3 ± 3.5 cmH2O; leak point pressure increase ([2]; 0.03 mg/kg): 5.9 ± 1.9 cmH2O; leak point pressure after drug administration ([2]; 0.1 mg/kg): 63.2 ± 5.7 cmH2O; leak point pressure increase ([2]; 0.1 mg/kg): 18.7 ± 2.9 cmH2O; leak point pressure after drug administration ([2]; 0.3 mg/kg): 67.9 ± 11.5 cmH2O; leak point pressure increase ([2]; 0.3 mg/kg): 27.2 ± 3.9 cmH2O; leak point pressure before drug administration ([2]; dose group 0.01 mg/kg): 36.4 ± 7.6 cmH2O; leak point pressure before drug administration ([2]; dose group 0.03 mg/kg): 44.2 ± 7.2 cmH2O; leak point pressure before drug administration ([2]; dose group 0.1 mg/kg): 44.5 ± 5.8 cmH2O; leak point pressure before drug administration ([2]; dose group 0.3 mg/kg): 40.7 ± 8.7 cmH2O
c1cc2c3c(c1)[C@@H]1CCC[C@@H]1N3CCNC2 [WAY-163907] |  |  |  |  |  |  |  |  |  |  |  |  | showed no effect |  |  |  | showed no effect | 47.4 ± 4.8 | −4.8 ± 2.6 | 52.2 ± 3.4 | leak point pressure after drug administration ([1]; 3 mg/kg): 57.0 ± 5.1 cmH2O; leak point pressure increase ([1]; 3 mg/kg): 1.9 ± 0.5 cmH2O; leak point pressure before drug administration ([1]; dose group 3 mg/kg): 55.1 ± 4.7 cmH2O
CC(N)Cc1c[nH]c2ccc(OCc3cccs3)cc12 (centres unmarked) [BW723C86] |  |  |  |  |  |  |  |  |  |  |  |  |  |  |  |  | showed no effect | 48.9 ± 4.6 | 2.5 ± 3.5 | 46.4 ± 5.6 | leak point pressure after drug administration ([2]; 10 mg/kg): 48.6 ± 3.2 cmH2O; leak point pressure increase ([2]; 10 mg/kg): −0.7 ± 3.9 cmH2O; leak point pressure before drug administration ([2]; dose group 10 mg/kg): 49.3 ± 6.5 cmH2O
CCCN(CCC)C1CCc2cccc(O)c2C1 (centres unmarked) [8OH-DPAT] |  |  |  |  |  |  |  |  |  |  |  |  |  |  |  |  | showed no effect |  |  |  | leak point pressure after drug administration ([2]; 0.3 mg/kg): 47.1 ± 9.4 cmH2O; leak point pressure increase ([2]; 0.3 mg/kg): −1.5 ± 1.2 cmH2O; leak point pressure before drug administration ([2]; dose group 0.3 mg/kg): 48.5 ± 9.6 cmH2O
Clc1cccc(N2CCNCC2)c1 [mCPP] | 69.3 ± 3.4 | 6.3 ± 2.3 | 73.8 ± 7.1 | 11.6 ± 3.1 | 76.7 ± 4.0 | 13.6 ± 2.5 | 71.1 ± 7.1 | 5.4 ± 2.2 | 63.0 ± 2.7 | 62.2 ± 4.4 | 63.1 ± 3.9 | 65.7 ± 7.8 | increased the leak point pressure significantly | 49.1 ± 6.4 | 2.8 ± 2.1 | 52.3 ± 4.3 | increased the leak point pressure significantly |  |  |  | leak point pressure after drug administration ([1]; 0.003 mg/kg): 67.0 ± 5.3 cmH2O; leak point pressure increase ([1]; 0.003 mg/kg): 4.1 ± 2.1 cmH2O; leak point pressure before drug administration ([1]; dose group 0.003 mg/kg): 62.9 ± 5.0 cmH2O; leak point pressure increase ([2]; 0.03 mg/kg): 14.6 ± 2.7 cmH2O; leak point pressure after drug administration ([2]; 0.1 mg/kg): 59.7 ± 6.6 cmH2O; leak point pressure increase ([2]; 0.1 mg/kg): 13.2 ± 2.8 cmH2O; leak point pressure before drug administration ([2]; dose group 0.01 mg/kg): 46.3 ± 5.8 cmH2O; leak point pressure before drug administration ([2]; dose group 0.03 mg/kg): 37.7 ± 4.0 cmH2O; leak point pressure before drug administration ([2]; dose group 0.1 mg/kg): 46.5 ± 6.1 cmH2O
CNS(=O)(=O)Cc1ccc2[nH]cc(CCN(C)C)c2c1 [sumatryptan] |  |  |  |  |  |  |  |  |  |  |  |  |  |  |  |  | showed no effect | 54.4 ± 7.5 | 1.5 ± 2.6 | 52.9 ± 7.8 | leak point pressure after drug administration ([2]; 1 mg/kg): 42.2 ± 2.0 cmH2O and 44.9 ± 9.1 cmH2O; leak point pressure before drug administration ([2]; dose group 1 mg/kg): 44.2 ± 2.6 cmH2O and 43.2 ± 8.3 cmH2O
